Data taken from patent US9486423B2, “Redox-directed chelators targeting intracellular metal ions” (THE ARIZONA BOARD OF REGENTS ON BEHALF OF THE UNIVERSITY OF …, priority 2014, dated 2016).
Each block holds one molecule with its values, some of them ahead of it.

What was measured:
[1] = clinical trials terminated; cited from earlier work
[2] = tested on: MRC-5 (normal lung fibroblast) cells; assay: MTT assay of cell viability, MRC-5; type: cell-based, human; conditions: for IC50: MTT assay, 72 h exposure; for toxicity in normal lung fibroblasts (comparison): normal cells
Protocol: (§1) The present inventors have also investigated the antiproliferative activity of series of pro-chelators and chelators of the invention towards human cell lines. MTT assays of cell viability (Table 1) were performed on two cancer cell lines, neuroepithelioma SK-N-MC and breast adenocarcinoma MDA-MB-231, which are well studied in the context of iron deprivation. The established antiproliferative iron chelator DFO was used as a control and its toxicity profiles compared well to literature ones for these cell lines. Viability measurements were conducted in the presence of human holotransferrin in order to load intracellular iron pools and assess antiproliferative activity related to intracellular iron deprivation.
Because normal cells divide at a lower rate, MTT assays were performed after exposures of 48 h and also 72 h (Table 1).

[3] = tested on: SK-N-MC (neuroepithelioma) cells; assay: MTT assay of cell viability, SK-N-MC; type: cell-based; conditions: 48 h exposure, in the presence of human holotransferrin
Protocol: as §1
(§2) MDA-MB-231 (ATCC® HTB-26™) breast adenocarcinoma cells and SK-N-MC (ATCC® HTB-10™) neuroepithelioma cells were cultured under a 5% CO2 humidified atmosphere at 37° C. in Eagle's Minimal Essential Medium (EMEM) supplemented with 10% fetal bovine serum (FBS), glutamine (2 mM), sodium pyruvate (1 mM), sodium bicarbonate ([…]), penicillin (100 units/mL), streptomycin (100 μg/mL) and 1.25 μM (1 mg/10 mL) human holo-transferrin (Aldrich) prior to use. Jurkat T lymphocytes (ATCC® T1B-152™) were cultured at 37° C. under a 5% CO2 humidified atmosphere in RPMI 1640 media supplemented with 10% FBS, penicillin (5 mg/ml) and streptomycin (1 mg/ml), and maintained at a density lower than 2.0×10^6 cells/mL.

[4] = tested on: MDA-MB-231 (breast adenocarcinoma) cells; assay: MTT assay of cell viability, MDA-MB-231; type: cell-based; conditions: in the presence of human holotransferrin
Protocol: as §1, §2

MDA-MB-231 cells [5] = assay: Intracellular ROS generation, oxidation of DCFH2 to DCF; type: cell-based, human; conditions: 30 min incubation, compared to H2O2 (100 μM) positive control
Protocol: FIG. 8 is a bar graph showing intracellular generation of ROS monitored through the oxidation of DCFH2 to fluorescent DCF (ex: 485 nm, em: 528 nm). MDA-MB-231 cells were treated with DCFH2-DA (10 μM, 10 min), washed and then incubated with test compounds (concentrations as shown, 30 min). H2O2 (100 μM) was employed as a positive control. Measurements were conducted in triplicate and reported as average±standard deviation.
The in-vitro results above were confirmed in cultures of MBA-MD-231 breast carcinoma cells using a fluorescence-based assay of ROS generation. Added to the growth media, cell-permeable dihydrodichlorofluorescein diacetate (DCFH2-DA) was hydrolized intracellularly to trap the probe dihydrodichlorofluorescein (DCFH2), which was oxidized by several ROS to give the bright fluorescent product dichlorofluorescein. […] FIG. 8.

[6] = Iron coordination with Fe(BF4)2.6H2O; type: binding; conditions: organic solvents and buffered aqueous solutions
Source text: Consistent with the modest coordinating ability of disulfide linkages in general and the conformational restraints they impose on the joint thiosemicarbazone units in this case, disulfides 1a-c behave as masked pro-chelators of low iron coordinating ability.
Conversely, thiols 2a-c react readily with Fe(BF4)2.6H2O in organic solvents and in buffered aqueous solutions. From reactions in THF, iron complexes 3a-c were isolated by crystallization and characterized by high-resolution mass spectrometry and elemental analysis. Complexes 3a (FIG. 11) and 3b were also characterized by single crystal X-ray diffraction analysis.

[7] = Reduction by GSH monitored by UV-visible absorption spectroscopy; type: physicochemical; conditions: GSH 11.0 mM
Protocol: FIG. 2 is a graph showing reduction of (TC1-S)2 (9.0 μM) by GSH (11.0 mM) as monitored by UV-visible absorption spectroscopy in buffered aqueous solution (50 mM PIPES, pH 7.4) at 25° C. Spectral changes during the reduction of (TC1-S)2 (Line 2, […]) to TC1-SH (Line 1) by GSH (11.0 mM). The reaction goes to substantial completion within 2 h.
The reduction of (TC1-S)2 can be monitored in vitro by UV-visible absorption spectroscopy. FIG. 2.

[8] = tested on: ribonucleotide reductase (RNR) tyrosyl radical in Jurkat cells; assay: Whole-cell EPR of the tyrosyl radical of ribonucleotide reductase; type: cell-based, human; conditions: 50 μM
Protocol: FIG. […] Experimental conditions: microwave frequency, 9.338 GHz; microwave power, 2 mW; magnetic field modulation amplitude, 0.5 mT; temperature, 30° K.
EPR data were also used to examine the effect of chelation system on the tyrosyl radical that characterizes the active site of ribonucleotide reductase (RNR), the iron-dependent enzyme that is believed to be essential in DNA biosynthesis.

MDA-MB-231 cells [9] = assay: Effect of NAC supplementation on toxicity (viability assay); type: cell-based, human; conditions: 10.0 μM compound, 48 h, after 6 h NAC
Protocol: FIG. 4 is a bar graph showing the effect of N-acetyl cystein (NAC) supplementation on the toxicity of DFO (10 μM) and (TC1-S)2 (10 μM). MDA-MB-231 cells were incubated with NAC for 6 h before treatment with DFO (10.0 μM) or (TC1-S)2 (10.0 μM) for 48 h. Percent viability is expressed relative to control treated with DMSO and averaged over three experiments±percent standard deviation.
The control of reducing conditions employed in vitro in the experiments summarized above cannot be achieved in cell culture; nevertheless, the intracellular concentration of GSH can be increased by supplementing with N-acetyl cysteine (NAC), a precursor required for GSH biosynthesis. […] FIG. 4.

[10] = Cyclic voltammetry in DMF; type: physicochemical; conditions: glassy carbon electrode
Source text: FIG. 10 is a cyclic voltammograms of disulfides 1a-c at a glassy carbon electrode in DMF with (n-Bu4N)(PF6) as supporting electrolyte. Data collected at a 100 mVS^−1 sweep rate using Ag/AgNO3 reference electrode and a platinum wire auxiliary electrode.
The reduction of disulfides 1a-c was investigated by electrochemical methods in N,N-dimethylformamide. FIG. 10. The collected cyclic voltammograms present irreversible cathodic peaks that are characteristic of aromatic disulfide reduction and correspond to the two-electron reductive process leading to formation of two thiolate ions. Consistent with reported electronic effects of substituents in aromatic disulfides, peak reduction potentials of compounds 1a-c vary considerably with the substitution on the thiosemicarbazone unit. […] These experiments established that electronic effects of the partially conjugated chelating units modulate the thermodynamic drive to reduction of disulfide constructs. Similarly, it is expected that an electron withdrawing group substituent on the phenyl ring itself (e.g., R^3 and/or R^4 in Formula I) will also result in lower reduction potential. As used herein, the term “electron withdrawing group” refers to any substituent that draws electron density away from a given center (e.g., disulfide or thiol group in compounds 1a-c and 2a-c, respectively). […]

Jurkat cells = assay: Calcein-AM fluorescence assay of intracellular iron binding; type: cell-based, human; conditions: suspended Jurkat cells loaded with calcein; SIH added after (TC1-S)2
Source text: FIG. 5 is a graph showing displacement of paramagnetic ions and restoration of calcein fluorescence by addition of chelators (TC1-S)2 and SIH at the indicated times and final concentrations in suspended Jurkat cell cultures. Fluorescence intensity at 517 nm (excitation, 488 nm) is plotted as the difference from the initial values before any addition. DMSO concentration was kept constant in all solutions.
Intracellular iron binding was first examined using calcein-AM, the acetoxymethyl ester of a fluorescein-based sensor of metal ions in biological specimens. Trapped intracellularly upon hydrolysis of the ester groups by esterases, calcein coordinates iron and possibly other (far less abundant) cations (e.g., Cu(II) and Zn(II)). Calcein stabilizes ferric iron coordination and this paramagnetic ion quenches considerably its fluorescence emission.

[11] = Equilibration in GSH/GSSG redox buffer solutions at different half-cell potentials; type: physicochemical; conditions: half-cell potentials of −220 mV or lower (vs SHE); 12.5 μM disulfide, 11-13 mM total glutathione, 2 h
Protocol: FIG. 3 is a graph showing the fraction of reduced chelator TC1-SH obtained from UV-visible absorption data in GSH/GSSG redox buffer solutions at different half-cell potentials. Total ([GSH]+[GSSG]) was maintained at 11-13 mM, whereas initial [(TC1-S)2] was 12.5 μM. Samples were allowed to equilibrate for 2 h. Data points are plotted as average of triplicate measurements±standard deviation.
In order to estimate the speciation of the prochelator/chelator system in solutions containing glutathione levels reflecting biologically relevant conditions, disulfide (TC1-S)2 was allowed to equilibrate in a series of redox buffer mixtures. The half-cell potentials for the solutions were calculated based on the concentrations of GSH and GSSG and they were selected to include values from those typically associated to proliferating cells (−240 mV vs SHE) to those found in necrotic cells (−180 mV). […] FIG. 3. As such, in this model of intracellular conditions containing micromolar chelation system and millimolar glutathione buffer, the chelation system after equilibration was found prevalently in its reduced iron-binding form at glutathione half-cell potentials that are characteristic of proliferating and malignant cells.

Compound: NC(=S)NN=Cc1ncccc1N [Compound 3-AP, 3-Aminopyridine-2-carboxaldehyde thiosemicarbazone]
adverse side effects [1]: methemoglobinemia

IC50 [3]: 5.19 ± 0.17 µM
IC50 ([4]; 48 h exposure): 15.01 ± 0.05 µM
stability of thiol in solution ([7]; neutral buffered aqueous solution): over 6 h
Compound: S=C(NN=Cc1ccccc1S)Nc1ccccc1 [Compound 2c]
IC50 [2]: 15.08 ± 0.02 µM
intracellular generation of ROS (DCF fluorescence) (MDA-MB-231 cells [5]): did not elicit significant turn-on response
iron coordination [6]: readily coordinates Fe(II) ions

IC50 [3]: 8.91 ± 0.09 µM
IC50 ([4]; 48 h exposure): 22.07 ± 0.04 µM
Compound: NC(=S)NN=Cc1ccccc1SSc1ccccc1C=NNC(N)=S [Compound 1a]

IC50 [3]: 6.81 ± 0.17 µM
IC50 ([4]; 48 h exposure): 4.59 ± 0.06 µM
conversion of disulfide to thiol ([7]; neutral buffered aqueous solution, 9.0 μM): converted substantially quantitatively
estimated equilibrium percentage of thiol [11]: greater than 80%
Compound: S=C(NN=Cc1ccccc1SSc1ccccc1C=NNC(=S)Nc1ccccc1)Nc1ccccc1 [Compound 1c]
IC50 [2]: 30.91 ± 0.02 µM
toxicity in normal lung fibroblasts (comparison) [2]: significantly less toxic than its corresponding thiol 2c
toxicity in normal lung fibroblasts (comparison) ([2]; listed as (TC1-S)2): significantly less toxic than DFO
RNR tyrosyl radical EPR signal ([8]; 1 h): decrease in RNR signal amplitude
IC50 ([4]; 48 h exposure, listed as (TC1-S)2): 4.6 µM
effect of increasing NAC on toxicity (MDA-MB-231 cells [9]): more susceptible
ease of disulfide reduction (peak reduction potential) [10]: easier to reduce compared to analogues 1a and 1b
intracellular generation of ROS (DCF fluorescence) (MDA-MB-231 cells [5]): did not elicit significant turn-on response
calcein fluorescence intensity (Jurkat cells): concentration-dependent increase in fluorescence intensity
time to substantial completion of reduction to TC1-SH ([7]; 9.0 μM disulfide, 50 mM PIPES, pH 7.4, 25° C.): ≤ 2 h

Compound: O=C(NN=Cc1ccccc1O)c1ccncc1 [SIH, salicylaldehyde isonicotinoyl hydrazone, reference compound]
calcein fluorescence intensity (Jurkat cells): further increased fluorescence intensity

Compound: CC(=O)N(O)CCCCCNC(=O)CCC(=O)N(O)CCCCCNC(=O)CCC(=O)N(O)CCCCCN [DFO, desferrioxamine, reference compound]
IC50 ([2]; Homo sapiens, MRC5): 8.04 ± 0.03 µM
RNR tyrosyl radical EPR signal ([8]; 3 h): loss of signal
IC50 ([3]; SK-N-MC): 10.02 ± 0.06 µM
IC50 ([4]; Homo sapiens, MDA-MB-231, 48 h, 48 h exposure): 17 µM
IC50 ([4]; MDA-MB-231, 48 h exposure): 17.05 ± 0.05 µM
effect of increasing NAC on toxicity (MDA-MB-231 cells [9]): not affected significantly
